These are literature values, as cited in patent US20180369129A1, “MICROBIOME-COMPATIBLE COSMETICS” (AOBIOME LLC, priority 2015, published 2018).

Series [1] concerns NOS. As to conditions: rat pancreatic islets; through the induction of iNOS.
Series [2] concerns NOS. The following applies: reduction in basal NO levels.

`COC(=O)[C@@H](N)CCCNC(=N)N[N+](=O)[O-]` [L-NAME]: in the series on NOS [1], the “total NO production” value is reported as “increases total NO production”. For the same compound, in the series with NOS [2], the “effect of chronic inhibition of NOS on heart and kidneys” value is “generalized fibrosis of the heart and kidneys”.
